Tested on: abl kinase
Experiment: abl kinase inhibition assay
Assay type: biochemical

| % Inhibition @1 μM Abl | SMILES |
| --- | --- |
| 107% | C/C=C/c1cc(Nc2cc(N3CCNCC3)nc(Oc3ccc4[nH]c(C)cc4c3F)n2)n[nH]1 [Example 68] |
| 113% | C/C=C/c1cc(Nc2cc(N3CCN(CCO)CC3)nc(Oc3cc(F)c4[nH]c(C)cc4c3F)n2)n[nH]1 [Example 88] |
| 112% | C/C=C/c1cc(Nc2cc(N3CCNCC3)nc(Oc3cc(F)c4[nH]c(C)cc4c3F)n2)n[nH]1 [Example 90] |
| 107% | Cc1cc2c(F)c(Oc3nc(Nc4cc(C5CC5)[nH]n4)cc(N4CCC(O)CC4)n3)ccc2[nH]1 [Example 21] |
| 108% | CCC1CN(c2cc(Nc3cc(C4CC4)[nH]n3)nc(Oc3ccc4[nH]c(C)cc4c3F)n2)CCN1 (stereo not shown) [Example 41] |
| 110% | Cc1cc2c(F)c(Oc3nc(Nc4cc(C5CC5)[nH]n4)cc(N4CCN(C)CC4)n3)cc(F)c2[nH]1 [Example 81] |
| 112% | C/C=C/c1cc(Nc2cc(N3CCOCC3)nc(Oc3cc(F)c4[nH]c(C)cc4c3F)n2)n[nH]1 [Example 89] |
| 112% | C/C=C/c1cc(Nc2cc(N3CCC(O)CC3)nc(Oc3ccc4[nH]c(C)cc4c3F)n2)n[nH]1 [Example 59] |
| 108% | Cc1cc2c(F)c(Oc3nc(Nc4cc(C5CC5)[nH]n4)cc(N4CCC(F)CC4)n3)ccc2[nH]1 [Example 22] |
| 108% | Cc1cc2c(F)c(Oc3nc(Nc4cc(C5CC5)[nH]n4)cc(N4CCNC(=O)C4)n3)ccc2[nH]1 [Example 19] |
| 112% | Cc1cc2c(F)c(Oc3nc(Nc4cc(C5CC5)[nH]n4)cc(N4CCN(C)CC4)n3)ccc2[nH]1 [Example 10] |
| 109% | C/C=C/c1cc(Nc2cc(N3CCN(C)CC3)nc(Oc3ccc4[nH]c(C)cc4c3F)n2)n[nH]1 [Example 53] |
| 112% | C/C=C/c1cc(Nc2cc(N3CCN(C)CC3)nc(Oc3cc(F)c4[nH]c(C)cc4c3F)n2)n[nH]1 [Example 87] |
| 109% | Cc1cc(Nc2cc(N3CCNCC3)nc(Oc3cc(F)c4[nH]c(C)cc4c3F)n2)n[nH]1 [Example 106] |
| 110% | C/C=C/c1cc(Nc2cc(N3CCC(OC)CC3)nc(Oc3cc(F)c4[nH]c(C)cc4c3F)n2)n[nH]1 [Example 96] |
| 111% | Cc1cc2c(F)c(Oc3nc(Nc4cc(C5CC5)[nH]n4)cc(N4CCNCC4)n3)ccc2[nH]1 [Example 11, N-(5-cyclopropyl-1H-pyrazol-3-yl)-2-((4-fluoro-2-methyl-1H-indol-5-yl)oxy)-6-(piperazin-1-yl)pyrimidin-4-amine] |
| 112% | C/C=C/c1cc(Nc2cc(N3CCC(OC)CC3)nc(Oc3ccc4[nH]c(C)cc4c3F)n2)n[nH]1 [Example 58] |
| 112% | Cc1cc2c(F)c(Oc3nc(Nc4cc(C5CC5)[nH]n4)cc(N4CCOCC4)n3)ccc2[nH]1 [Example 13] |
| 110% | C/C=C/c1cc(Nc2cc(N3CCC(O)CC3)nc(Oc3cc(F)c4[nH]c(C)cc4c3F)n2)n[nH]1 [Example 95] |

Further lines, the compound ahead of its results:

| SMILES | % Inhibition @1 μM Abl |
| --- | --- |
| CC(=O)N1CCN(c2cc(Nc3cc(C4CC4)[nH]n3)nc(Oc3ccc4[nH]c(C)cc4c3F)n2)CC1 [Example 18] | 107% |
| Cc1cc2c(F)c(Oc3nc(Nc4cc(C5CC5)[nH]n4)cc(N4CC(O)C4)n3)ccc2[nH]1 [Example 15] | 108% |
| Cc1cc2c(F)c(Oc3nc(Nc4cc(C5CC5)[nH]n4)cc(N4CCC(N(C)C)C4)n3)ccc2[nH]1 (stereo not shown) [Example 17] | 108% |
| C/C=C/c1cc(Nc2cc(N3CCN(C)CC3)nc(Oc3ccc4[nH]c(C)cc4c3Cl)n2)n[nH]1 [Example 112] | 113% |
| C/C=C/c1cc(Nc2cc(N3CCN(CCF)CC3)nc(Oc3ccc4[nH]c(C)cc4c3F)n2)n[nH]1 [Example 74] | 111% |
| C/C=C/c1cc(Nc2cc(N3CCN(CCOC)CC3)nc(Oc3ccc4[nH]c(C)cc4c3F)n2)n[nH]1 [Example 54] | 108% |
| Cc1cc2c(F)c(Oc3nc(Nc4cc(C5CC5)[nH]n4)cc(N4CCOCC4)n3)ccc2n1C [Example 123] | 114% |
| Cc1cc2c(F)c(Oc3nc(Nc4cc(C5CC5)[nH]n4)cc(N4CCOC(CN)C4)n3)ccc2[nH]1 (stereo not shown) [Example 39] | 110% |
| COC1CCN(c2cc(Nc3cc(C4CC4)[nH]n3)nc(Oc3ccc4[nH]c(C)cc4c3F)n2)C1 (stereo not shown) [Example 16] | 103% |
| Cc1cc2c(F)c(Oc3nc(Nc4cc(C5CC5)[nH]n4)cc(N4CCN(c5ccccn5)CC4)n3)ccc2[nH]1 [Example 25] | 108% |
| Cc1cc2c(F)c(Oc3nc(Nc4cc(C5CC5)[nH]n4)cc(N4CCN(c5ccncc5)CC4)n3)ccc2[nH]1 [Example 27] | 108% |
| Cc1cc2c(F)c(Oc3nc(Nc4cc(C5CC5)[nH]n4)cc(N4CCOC(CN(C)C)C4)n3)ccc2[nH]1 (stereo not shown) [Example 30] | 110% |
| Cc1cc2c(F)c(Oc3nc(Nc4cc(C5CC5)[nH]n4)cc(N4CCN(CC(F)(F)F)CC4)n3)ccc2[nH]1 [Example 38] | 108% |
| C/C=C/c1cc(Nc2cc(N3CCN(C)CC3)nc(Oc3ccc4c(cc(C)n4C)c3F)n2)n[nH]1 [Example 120] | 115% |
| Cc1cc2c(F)c(Oc3nc(Nc4cc(C5CC5)[nH]n4)cc(N4CCN(S(C)(=O)=O)CC4)n3)ccc2[nH]1 [Example 23] | 108% |
| C/C=C/c1cc(Nc2cc(N3CCC(OC)C3)nc(Oc3ccc4[nH]c(C)cc4c3F)n2)n[nH]1 (stereo not shown) [Example 60] | 111% |
| Cc1cc2c(F)c(Oc3nc(Nc4cc(C5CC5)[nH]n4)cc(N4CCN(CCF)CC4)n3)ccc2[nH]1 [Example 45] | 107% |
| Cc1cc2c(F)c(Oc3nc(Nc4cc(C5CC5)[nH]n4)cc(N4C[C@@H](C)N[C@@H](C)C4)n3)ccc2[nH]1 [Example 20] | 107% |

Source: US9458137B2, “Substituted indol-5-ol derivatives and their therapeutical applications” (NantBioScience, Inc., priority 2012, dated 2016)
